In patent EP4592274A1, “RADIOLABELED TYROSINE DERIVATIVE AND APPLICATION THEREOF” (OSAKA UNIVERSITY, priority 2022, dated 2024):

Assays:
[1] = Thin-layer chromatography (TLC) analysis of decomposition after production; assay type: physicochemical; conditions: 24 hours after purification; in sodium ascorbate aqueous solution (final concentration 1%)
Protocol: The crude product solution (1 µL) was analyzed by thin-layer chromatography (TLC). The sample was spotted on a thin-layer plate (silica gel 60F254), and a mixed solvent of acetonitrile/water (2/1) was used as a developing solvent. The thin-layer plate was exposed to an imaging plate (BAS IP MS 2025E, GE Healthcare) for about 15 min, and then analyzed by a bioimage analyzer (Tyhoon™ FLA-7000, Cytiva). The results are shown in Fig.2. ^211At-AAMT-OMe in the crude product solution was detected at Rf 0.80, and the radiochemical yield (RCY) was 81.3%.
Before purification, immediately after production, 3 hours after production, and 24 hours after production, ^211At-AAMT-OMe was analyzed by thin-layer chromatography (TLC) in the same manner as described above.
24 hours after production, (R)-^211At-AAMT-OMe was analyzed by thin-layer chromatography (TLC) in the same manner as described above.
24 hours after production, ^211At-AAMT-OEt was analyzed by thin-layer chromatography (TLC) in the same manner as described above.
24 hours after production, ^211At-AAMT-OPr was analyzed by thin-layer chromatography (TLC) in the same manner as described above.
24 hours after production, ^211At-AAMPhe-OMe was analyzed by thin-layer chromatography (TLC) in the same manner as described above.

[2] = tested on: CDDP-resistant A549 (A549 CDDP-r); experiment: Cell viability of CDDP-resistant A549 in the presence of CDDP (Test Example 7); assay type: cell-based, human; conditions: A549 CDDP-r at 100 µg/mL CDDP
Protocol: Cisplatin (CDDP) was added to a human lung cancer cell line, A549 at an initial concentration of 1 µg/mL. After 3 days, dead cells were removed, and CDDP was again added. Cells that grew like A549 even in the presence of CDDP were isolated and maintained for 3 months while gradually increasing the concentration of CDDP in a culture medium.

[3] = tested on: human pancreatic cancer cell line, PANC1; experiment: Measurement of accumulated amounts of 211At-labeled compounds in tumors of PANC1 transplanted mice (Test Example 5); assay type: in vivo; conditions: 0.1 MBq per mouse via tail vein
Protocol: Radiation doses before and after the administration were measured, and a difference between them was defined as an injected dose (ID). Ten minutes and one hour after administration, the mice were anesthetized by isoflurane inhalation, the tumors were isolated by autopsy in chronological order, and their radiation doses and weights were measured using a gamma counter (2480 Wizard^2, PerkinElmer) and a semimicro scale (Shimadzu Corporation, readability 10 µg), respectively. For comparison between accumulated amounts, accumulated amounts per unit amount (% ID/g) were calculated.

[4] = tested on: CDDP-resistant A549 (A549 CDDP-r); experiment: Cytotoxicity test on CDDP-resistant A549 (Test Example 8); conditions: cultivation for 48 hours
Protocol: Two days before experiment, A549 and CDDP-resistant A549 (A549 CDDP-r) were each seeded in a 96-well plate at a concentration of 1 × 10^5 cells/mL. ^211At-AAMT-OMe or ^211At-AAMT adjusted to a predetermined concentration was added to A549 cells and CDDP-resistant A549 cells, respectively, and the cells were cultured (CO2 5%, 37°C). After the cultivation for 48 hours, Cell counting kit-8 (DOJINDO LABORATORIES) was added. After the addition, the cells were cultured at 37°C for 1 hour, and cell viability was measured using absorbance at 450 nm as an indicator.

[5] = tested on: human pancreatic cancer cell line, PANC1; experiment: Imaging of mice subcutaneously transplanted with PANC1 (Test Example 2); conditions: 2 hours after administration, 0.5 MBq per mouse via tail vein
Description: Immunodeficient mice (Balb/c-nu/nu, 5-week-old, male) were habituated for 1 week and then subcutaneously transplanted with a human pancreatic cancer cell line (PANC1, 1 × 10^7 cells/mouse). After the transplantation, the mice were observed over time until tumor reached a size large enough for imaging (about 1000 mm^3). […] Two hours after administration, the mice were anesthetized by isoflurane inhalation, and planar images were taken using a γ camera (E-cam, Siemens).

PANC1 = experiment: Cellular uptake test (using PANC1); assay type: cell-based, human; conditions: compared to 211At-AAMT; for uptake speed: PANC1 cells
Protocol: • Cells to be used: PANC1 • Culture medium to be used: D-MEM (containing 10% FBS, 1% P/S)
Two days before a test day, a cell suspension was prepared in such a manner that the concentration of predetermined cells was 1 x 10^5 cells/mL in the same manner as in Test Example 1. The cell suspension was seeded in a 24-well multiculture plate at a volume of 0.5 mL per well. On the day of the test, cultures were confirmed to be subconfluent (which refers to a state where 70-80% of the well is covered in density). The cells were washed twice with warmed PBS(-) Buffer (166-23555, FUJIFILM Wako Pure Chemical Corporation), the culture medium was replaced with HBSS(-) Buffer (085-09355, FUJIFILM Wako Pure Chemical Corporation), and the plate was left to stand in an incubator (MINIcell-35, WakenBtech Co., Ltd) until an RI addition test.
^211At-AAMT-OMe, ^211At-AAMT-OEt, ^211At-AAMT-OPr, or ^211At-AAMT was added to the prepared cells at 10 µL/well. BCH (LAT1 inhibitor, 20 mM) or unlabeled AMT (α-methyl tyrosine, […]) was previously (15 minutes before) added (10 µg/mL). The cells were cultured (CO2 5%, 37°C), and after 30 minutes, the liquid was removed by suction using an aspirator. The cells were washed twice with PBS(-). The cells were lysed by adding 0.1N NaOH to obtain a lysate, and the radioactivity of the lysate was measured using a γ counter. After the radioactivity measurement, the lysate was loaded into a 96-well plate at a volume of 10 µL per well, the protein amount was measured by the BCA method, and the number of cells was corrected based on the protein amount. Absorbance was measured by MultiScanFC (Thermo Fisher). The uptake level of ^211At-AAMT-OMe, ^211At-AAMT-OEt, ^211-At-AAMT-OPr, or ^211At-AAMT into the cells (number of radioactivity counts/protein amount) was calculated.

[6] = tested on: human pancreatic cancer cell line, PANC1; conditions: up to 21 days after administration, 1 MBq per mouse
Protocol: Tumor sizes and body weights were measured over time after the administration. The experiment was terminated 21 days after administration. It should be noted that in Fig. 21 and Fig. 22, "OMe" is ^211At-AAMT-OMe and "OEt" is ^211At-AAMT-OEt.

HEK293-hLAT1 cells = biological target: T1, HEK293-hLAT1 cells (Homo sapiens, UniProt Q01650); experiment: Cellular uptake test (using HEK293); assay type: cell-based
T1 construct: expressed in transfected cells; host or cells: HEK293
T1 sequence (Q01650 whole entry): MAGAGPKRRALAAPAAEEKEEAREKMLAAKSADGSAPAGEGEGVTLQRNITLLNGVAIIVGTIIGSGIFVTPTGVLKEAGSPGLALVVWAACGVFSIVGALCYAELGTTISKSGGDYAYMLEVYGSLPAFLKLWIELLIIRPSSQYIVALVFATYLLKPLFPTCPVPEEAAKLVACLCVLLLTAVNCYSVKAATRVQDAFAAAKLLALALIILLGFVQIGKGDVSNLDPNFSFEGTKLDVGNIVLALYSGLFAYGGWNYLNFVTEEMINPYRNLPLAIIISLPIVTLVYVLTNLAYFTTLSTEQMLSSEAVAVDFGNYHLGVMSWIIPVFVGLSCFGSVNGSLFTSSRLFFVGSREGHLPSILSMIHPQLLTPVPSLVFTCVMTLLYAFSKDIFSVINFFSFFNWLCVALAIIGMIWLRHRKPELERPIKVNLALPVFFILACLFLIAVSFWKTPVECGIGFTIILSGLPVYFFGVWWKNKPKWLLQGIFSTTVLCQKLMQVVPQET
T1 sequence (P08195 102-630 partner): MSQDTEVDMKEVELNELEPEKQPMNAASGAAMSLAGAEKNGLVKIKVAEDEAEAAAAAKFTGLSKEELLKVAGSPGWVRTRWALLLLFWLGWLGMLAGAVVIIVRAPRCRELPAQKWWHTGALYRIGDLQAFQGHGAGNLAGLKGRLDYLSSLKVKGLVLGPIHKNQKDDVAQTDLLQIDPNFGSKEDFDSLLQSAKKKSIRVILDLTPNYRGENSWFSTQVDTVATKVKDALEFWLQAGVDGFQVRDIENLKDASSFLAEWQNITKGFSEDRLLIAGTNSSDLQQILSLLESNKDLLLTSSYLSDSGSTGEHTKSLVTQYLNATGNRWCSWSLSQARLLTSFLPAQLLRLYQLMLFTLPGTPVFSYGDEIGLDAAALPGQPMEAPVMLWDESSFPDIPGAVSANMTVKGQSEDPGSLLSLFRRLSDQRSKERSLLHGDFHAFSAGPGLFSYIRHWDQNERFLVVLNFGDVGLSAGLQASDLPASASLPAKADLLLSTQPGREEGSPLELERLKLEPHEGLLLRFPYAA
Protocol: • Cells to be used: HEK293-Mock, HEK293-hLAT1, HEK293-hLAT2 (HEK293: Human Embryonic Kidney cells 293) • Culture medium to be used: E-MEM (containing 10% FBS, 1% P/S, 1% NEAA)
Two days before a test day, a cell suspension was prepared in such a manner that the concentration of predetermined cells was 1 x 10^5 cells/mL. The cell suspension was seeded in a 24-well multiculture plate at a volume of 0.5 mL per well. On the day of the test, cultures were confirmed to be subconfluent (which refers to a state where 70-80% of the well is covered in density). […]
^211At-AAMT-OMe or ^211At-AAMT was added to the prepared cells at 10 µL/well. […] The cells were lysed by adding 0.1N NaOH to obtain a lysate, and the radioactivity of the lysate was measured using a γ counter. After the radioactivity measurement, the lysate was loaded into a 96-well plate at a volume of 10 µL per well, the protein amount was measured by the BCA method, and the number of cells was corrected based on the protein amount. Absorbance was measured by MultiScanFC (Thermo Fisher). The uptake level of ^211At-AAMT-OMe or ^211At-AAMT into the cells (number of radioactivity counts/protein amount) was calculated.

[7] = tested on: human pancreatic cancer cell line, PANC1; experiment: Therapeutic test on mice subcutaneously transplanted with PANC1 (Test Example 3); assay type: in vivo
Description: Twenty-eight days after administration, the mice were euthanized and subjected to autopsy, and tumor masses were isolated after organs were examined for abnormalities.

A549 = experiment: Therapeutic test on mice subcutaneously transplanted with A549 (Test Example 9); assay type: in vivo; conditions: A549, 30 days after administration, 0.5 MBq per mouse; compared with 211At-AAMT
Protocol: The mice were observed over time until engraftment of tumors was confirmed (50 to 100 mm^3), and when the tumors reached a predetermined size, ^211At-AAMT-OMe or ^211At-AAMT diluted with water for injection to 0.5 MBq/0.2 mL per mouse was administered via tail vein. Thirty days after administration, the mice were euthanized and tumor masses were isolated. After fat tissue and the like were trimmed off, the wet weights of the isolated tumor masses were measured to make a histogram.

[8] = tested on: CDDP-resistant A549 (A549 CDDP-r); conditions: 30 days after administration, 0.5 MBq per mouse, compared with 211At-AAMT
Protocol: (§1) Thirty days after administration, the mice were euthanized and tumor masses were isolated. After fat tissue and the like were trimmed off, the wet weights of the isolated tumor masses were measured to make a histogram.

[9] = tested on: Gem-resistant PANC1 (PANC1 Gem-r); conditions: mouse, in vivo
Protocol: as §1

[10] = tested on: gemcitabine-resistant human pancreatic cancer cell line, PANC1 (PANC1 Gem-r); experiment: Cell viability of gemcitabine-resistant PANC1 in the presence of gemcitabine (Test Example 11); assay type: cell-based; conditions: PANC1 Gem-r at 30 µg/mL gemcitabine
Protocol: Gemcitabine (Gem) was added to a human pancreatic cancer cell line, PANC1 at an initial concentration of 100 ng/mL. After 3 days, dead cells were removed, and gemcitabine was again added. Cells that grew like a human pancreatic cancer cell line, PANC1 even in the presence of gemcitabine were isolated and maintained for 3 months while gradually increasing the concentration of gemcitabine in a culture medium.

[11] = 10 minutes after administration

SMILES	decomposition (TLC) [1]	tumor accumulation [3, 11] [%ID/g]	tumor accumulation ([3]; 1 hour after administration) [%ID/g]	uptake speed (PANC1)	uptake level into the cells (number of radioactivity counts/protein amount) (PANC1)	other results
COc1ccc(C[C@@](C)(N)C(=O)O)cc1[At] [(R)-^211At-AAMT-OMe, (R)-3-astato(^211At)-O-methyl-α-methyltyrosine]	no decomposition					
[NH2][Pt]([NH2])([Cl])[Cl] [CDDP, Cisplatin]						cell viability [2]: still alive
COc1cc(C[C@](C)(N)C(=O)O)ccc1[At] [^211At-AAMPhe-OMe, (S)-α-methyl-4-astato(^211At)-3-methoxyphenylalanine]	no decomposition	3.77	6.38			
C[C@](N)(Cc1ccc(O)c([At])c1)C(=O)O [^211At-AAMT, astato(^211At)-α-methyl-L-tyrosine, reference compound]		0.29	2.49			cytotoxicity (cell viability, Cell counting kit-8) [4]: has cytotoxicity; accumulation in the tumor (planar image, γ camera) [5]: accumulated in the tumor sites
CCOc1ccc(C[C@](C)(N)C(=O)O)cc1[At] [^211At-AAMT-OEt, (S)-3-astato(^211At)-O-ethyl-α-methyltyrosine]	no decomposition	4.21	3.59	comparable or superior	comparable or superior	apparent toxicity induced by administration [6]: not observed; body weight [6]: gently increased; tumor growth inhibiting effect (tumor size) ([6]; compared with the 211At-AAMT-OMe administration group): comparable
COc1ccc(C[C@](C)(N)C(=O)O)cc1[211At] [^211At-AAMT-OMe, (S)-3-astato(^211At)-O-methyl-α-methyltyrosine]	no decomposition	2.59	3.78	much superior	much superior	uptake level into the cells (number of radioactivity counts/protein amount) (HEK293-hLAT1 cells; HEK293-hLAT1 cells (CTL), 30 minutes, comparable to 211At-AAMT): strongly taken up; uptake into the cells in the presence of inhibitor (HEK293-hLAT1 cells; HEK293-hLAT1 cells, in the presence of BCH and AMT): significantly inhibited; tumor size (wet weight of isolated tumor masses) ([7]; 28 days after administration, 1 MBq per mouse via tail vein, compared with the 211At-AAMT administration group): slightly smaller; mouse body weight ([7]; immediately after administration to 28th day, 1 MBq per mouse, not at a level regarded as a side effect): tends to slightly reduce; apparent toxicity induced by administration [6]: not observed; body weight [6]: gently increased; cytotoxicity (cell viability, Cell counting kit-8) [4]: more remarkable cytotoxicity; anti-tumor effect (tumor weight) (A549): comparable; anti-tumor effect (tumor weight) [8]: higher; anti-tumor effect (tumor weight) [9]: higher; tumor growth inhibiting effect (tumor size) [9]: higher; accumulation in the tumor (planar image, γ camera) [5]: accumulated in the tumor sites
CCCOc1ccc(C[C@](C)(N)C(=O)O)cc1[At] [^211At-AAMT-OPr, (S)-3-astato(^211At)-O-propyl-α-methyltyrosine]	no decomposition	5.91	9.45	comparable or superior	comparable or superior	
Nc1ccn([C@@H]2O[C@H](CO)[C@@H](O)C2(F)F)c(=O)n1 [gemcitabine, Gemcitabine]						cell viability [10]: still alive
